Test results as given in patent publication US20110124877A1, “5-BENZYL-4-AZOLYLMETHYL-4-SPIRO[2.4]HEPTANOL DERIVATIVES, METHODS FOR PRODUCING THE SAME, AND AGRO-HORTICULTURAL AGENTS AND INDUSTRIAL MATERIAL PROTECTING AGENTS THEREOF” (KUREHA CORPORATION, priority 2008, published 2011).

Columns and labels:
[1] = system: Tricoderma microorganism (Trichoderma sp.); test: Antimicroorganism effect, mycelial extension on PDA plate; format: cell-based; settings: PDA plate medium, 50 mg/l, 1 to 3 days, read-out: growth inhibition grade
[2] = system: Mucor microorganism (Mucor sp.); test: as above; format: cell-based; settings: PDA plate medium, 50 mg/l, 1 to 3 days, read-out: growth inhibition grade
[3] = system: rice blast microorganism (Pyricularia oryzae); test: microbe, parasite or virus in culture; format: cell-based; settings: read-out: growth inhibition grade
[4] = system: barley stripe microorganism (Pyrenophora graminea); test: Antimicroorganism effect, mycelial extension on PDA plate; format: cell-based; settings: PDA plate medium, 50 mg/l, 1 to 3 days, read-out: growth inhibition grade
[5] = system: cucumber fusarium wilt microorganism (Fusarium oxysporum); test: as above; format: cell-based; settings: PDA plate medium, 50 mg/l, 1 to 3 days, read-out: growth inhibition grade
[6] = system: barley scald microorganism (Rhynchosporium secalis); test: as above; format: cell-based; settings: PDA plate medium, 50 mg/l, 1 to 3 days, read-out: growth inhibition grade
[7] = system: citrous blue mold microorganism (Penicillium italicum); test: Antimicroorganism effect, mycelial extension on PDA plate; format: cell-based; settings: PDA plate medium, 50 mg/l, 1 to 3 days, read-out: growth inhibition grade
[8] = system: rice seedling blight microorganism (Rhizopus) (Rhizopus oryzae); test: as above; format: cell-based; settings: Rhizopus arrhizus, PDA plate medium, 50 mg/l, 1 to 3 days, read-out: growth inhibition grade
[9] = system: barley loose smut microorganism (Ustilago nuda); test: as above; format: cell-based; settings: PDA plate medium, 50 mg/l, 1 to 3 days, read-out: growth inhibition grade
[10] = system: gray mold microorganism (Botritis cinerea); test: as above; format: cell-based; settings: PDA plate medium, 50 mg/l, 1 to 3 days, read-out: growth inhibition grade
[11] = system: sugar beet cercospora leaf spot microorganism (Cercospora beticola); test: as above; format: cell-based; settings: PDA plate medium, 50 mg/l, 1 to 3 days, read-out: growth inhibition grade
[12] = system: wheat eye spot microorganism (Pseudocercosporella herpotrichoides); test: as above; format: cell-based; settings: Oculimacula yallundae, PDA plate medium, 50 mg/l, 1 to 3 days, read-out: growth inhibition grade
[13] = system: wood denaturing microorganism (Coriolus versicolor); test: as above; format: cell-based; settings: Trametes versicolor, PDA plate medium, 50 mg/l, 1 to 3 days, read-out: growth inhibition grade
[14] = system: apple alternaria blotch microorganism (Alternaria alternata); test: as above; format: cell-based; settings: PDA plate medium, 50 mg/l, 1 to 3 days, read-out: growth inhibition grade
[15] = system: penicillium microorganism (Penicillium sp.); test: as above; format: cell-based; settings: PDA plate medium, 50 mg/l, 1 to 3 days, read-out: growth inhibition grade
[16] = system: sclerotinia rot microorganism (Sclerotinia sclerotiorum); test: as above; format: cell-based; settings: PDA plate medium, 50 mg/l, 1 to 3 days, read-out: growth inhibition grade
[17] = system: wheat take-all microorganism (Gaeumannomyces graminis); test: as above; format: cell-based; settings: PDA plate medium, 50 mg/l, 1 to 3 days, read-out: growth inhibition grade
[18] = system: Aspergillus microorganism (Aspergillus sp.); test: as above; format: cell-based; settings: PDA plate medium, 50 mg/l, 1 to 3 days, read-out: growth inhibition grade
[19] = system: ricesheath blight microorganism (Rhizoctonia solani); test: as above; format: cell-based; settings: PDA plate medium, 50 mg/l, 1 to 3 days, read-out: growth inhibition grade
[20] = system: anthracnose microorganism (Glomerella cingulata); test: as above; format: cell-based; settings: Colletotrichum gloeosporioides, PDA plate medium, 50 mg/l, 1 to 3 days, read-out: growth inhibition grade
[21] = system: wheat septoria bloth microorganism (Septoria tritici); test: as above; format: cell-based; settings: Zymoseptoria tritici, PDA plate medium, 50 mg/l, 1 to 3 days, read-out: growth inhibition grade
[22] = system: wheat pink snow mold microorganism (Microdochium nivale); test: as above; format: cell-based; settings: PDA plate medium, 50 mg/l, 1 to 3 days, read-out: growth inhibition grade
[23] = system: Curvularia microorganism (Curvularia sp.); test: as above; format: cell-based; settings: PDA plate medium, 50 mg/l, 1 to 3 days, read-out: growth inhibition grade
[24] = system: wheat stagonospora blotch microorganism (Phaeosphaeria nodorum); test: as above; format: cell-based; settings: Parastagonospora nodorum, PDA plate medium, 50 mg/l, 1 to 3 days, read-out: growth inhibition grade
[25] = system: cucumber gray mold microorganism; test: Cucumber gray mold preventing effect assay; format: in vivo, Botrytis cinerea; settings: analogous assay at 25 mg/l
Description: The sprayed leaves were air-dried, and loaded with a paper disc (8 mm in diameter) soaked with a spore suspension of a cucumber gray mold microorganism, and kept at 20 degrees C. and a high humidity. 4 Days after inoculation, the cucumber gray mold severity was investigated, and the protective value was calculated by the following equation. [table]

[26] = system: wood denaturing microorganism (Tyromyces palustris); test: Antimicroorganism effect, mycelial extension on PDA plate; format: cell-based; settings: PDA plate medium, 50 mg/l, 1 to 3 days, read-out: growth inhibition grade
[27] = system: wheat fusarium blight microorganism (Fusarium graminearum); test: microbe, parasite or virus in culture; format: cell-based; settings: read-out: growth inhibition grade
[28] = system: Aureobasidium microorganism (Aureobasidium sp.); test: Antimicroorganism effect, mycelial extension on PDA plate; format: cell-based; settings: PDA plate medium, 50 mg/l, 1 to 3 days, read-out: growth inhibition grade
[29] = system: rice bakanae disease microorganism (Giberella fujikuroi); test: as above; format: cell-based; settings: PDA plate medium, 50 mg/l, 1 to 3 days, read-out: growth inhibition grade
[30] = system: Cladosporium microorganism (Cladosporium sp.); test: as above; format: cell-based; settings: PDA plate medium, 50 mg/l, 1 to 3 days, read-out: growth inhibition grade

SMILES: OC1(Cn2cncn2)C(Cc2ccc(Cl)cc2)CCC12CC2 (single isomer, unassigned) [Compound I-1, 5-(4-chlorobenzyl)-4-(1H-1,2,4-triazol-1-ylmethyl)-4-spiro[2.4]heptanol]
- inhibition at 50 µg/mL [1]: > 90%
- inhibition at 50 µg/mL [2]: 70 to 90%
- inhibition at 50 µg/mL [3]: > 90%
- inhibition at 50 µg/mL [4]: > 90%
- inhibition at 50 µg/mL [5]: > 90%
- inhibition at 50 µg/mL [6]: > 90%
- melting point: 85.5 to 87 °C
- inhibition at 50 µg/mL [7]: > 90%
- inhibition at 50 µg/mL [8]: 70 to 90%
- inhibition at 50 µg/mL [9]: 70 to 90%
- inhibition at 50 µg/mL [10]: > 90%
- inhibition at 50 µg/mL [11]: > 90%
- inhibition at 50 µg/mL [12]: > 90%
- inhibition at 50 µg/mL [13]: > 90%
- inhibition at 50 µg/mL [14]: 70 to 90%
- inhibition at 50 µg/mL [15]: > 90%
- inhibition at 50 µg/mL [16]: > 90%
- inhibition at 50 µg/mL [17]: > 90%
- inhibition at 50 µg/mL [18]: > 90%
- inhibition at 50 µg/mL [19]: 70 to 90%
- inhibition at 50 µg/mL [20]: > 90%
- inhibition at 50 µg/mL [21]: > 90%
- inhibition at 50 µg/mL [22]: 70 to 90%
- inhibition at 50 µg/mL [23]: 70 to 90%
- inhibition at 50 µg/mL [24]: > 90%
- Controlling value [25]: 100%
- activity compared with Compound (A) [25]: higher activity
- inhibition at 50 µg/mL [26]: > 90%
- inhibition at 50 µg/mL [27]: > 90%
- inhibition at 50 µg/mL [28]: 70 to 90%
- inhibition at 50 µg/mL [29]: > 90%
- inhibition at 50 µg/mL [30]: > 90%
